Legend:
[1] = tested on: BAM3 ectodomain with CLERK/At5g63710 ectodomains; experiment: Analytical size-exclusion chromatography, BAM3 + CLERK/At5g63710 ectodomains; assay type: binding, Arabidopsis thaliana; details: 50 µM peptide
Procedure: Isolation of recombinant proteins and analytical gel filtrations were carried out as described previously ([Hazak et al., 2017]) with small adjustments. The coding sequences for BAM1-ECD (amino acids 20-637), BAM3-ECD (30-651), PXY-ECD (30-647), NIK1-ECD (32-248), NIK2-ECD (33-248), NIK3-ECD (26-238), CLERK-ECD (28-236) and At5G63710-ECD (51-224) were amplified from Arabidopsis thaliana cDNA using PfuX7 polymerase. All ECD-coding sequences were then cloned into a modified pFAST-BAC1 vector (Geneva Biotech) by GIBSON cloning, resulting in the addition of the azurocidin signal peptide sequence to the 5′-end, and of a 2×-STREP-9×HIS tag to the 3′-end of the ECD sequences. These plasmids, after being confirmed by sequencing, were transformed into Escherichia coli DH10MultiBac (Geneva Biotech) followed by the extraction of the resulting bacmids. Transfection of the bacmids into Spodoptera frugiperda Sf9 cells with Profectin (AB Vector) was carried out to produce and amplify the respective virus. Recombinant secreted expression of the proteins was carried out by addition of virus to Trichoplusia ni Tnao38 cells to reach a viral multiplicity of 1 and incubation of the cells for 3 days. […] Concentrations of the pure proteins were assessed by measuring their absorbance at 280 nm (NanoDrop Lite; Thermo Scientific) and subsequent correction with their respective extinction coefficient. […]

[2] = tested on: Arabidopsis root growth; details: ref Hazak et al., 2017; cited from earlier work
Source text: The incapacity of clerk loss-of-function second site mutation to suppress the brx phenotype (unlike second site bam3 or clv2-crn loss of function) is also of interest with respect to the role of CLE peptide signaling in the spatiotemporal progression of protophloem sieve element differentiation. Resistance of clerk mutants against root-active CLE peptides as well as CLERK expression in early protophloem reiterate the key role of the protophloem in CLE sensing in the root ([Hazak et al., 2017]). Yet not all CLE peptides have an equally strong effect on root growth, which correlates with their i ...

[3] = tested on: CLERK gene expression; experiment: CLERK::eGFP-GUS reporter expression in root meristem; assay type: in vivo, Arabidopsis thaliana; details: 1 μM CLE26, 5 min vs 60 min (Fig. S1E); compared with VISUAL assay
Source text: B overlay of PI fluorescence withGFP channel, in absence of GFPC overlay of GFP fluorescence withPI channel, in absence of PI […]
Figure S1 – Supplemental figure. (A) Phylogenetic tree of the class II LRR-RKs of Arabidopsis. (B) Col-0 wild type control root meristem, […]
5 days old, confocal microscopy. Left: GFP channel, yellow, note some background on the root edges; Right: Overlay of GFP channel with […]
PI cell wall staining (cyan). (C) CLERK-GFP fusion protein expression pattern, confocal microscopy, imaged without PI cell wall staining.
Left: GFP fluorescence, yellow; Right: Overlay of GFP fluorescence with PI channel, note increased background. (D) BAM3-CITRINE fusion […]
protein expression pattern in a clerk mutant root meristem, confocal microscopy. Left: CITRINE fluorescence, yellow; Right: Overlay of CITRINE […]
fluorescence with PI cell wall staining (cyan). Asterisks indicate protophloem sieve element cell files. (E) CLERK gene expression in response […]
to CLE26 treatment, as monitored by GFP fluorescence in the root meristem of a Col-0 seedling that carried a CLERK::eGFP-GUS transgene, […]
confocal microscopy. The same root is shown at the beginning and end of a time course. GFP fluorescence, yellow; […]

Row | Sequence | Elution of BAM3 ectodomain with CLERK/At5g63710 ectodomains ([1]; Fig. S3A, pH 5.0) | Peptide-induced binding of CLERK and BAM3 ectodomains ([1]; gel filtration, 20 mM citrate (pH 5.0), 150 mM NaCl) | Relative strength as root-active CLE peptide [2] | CLERK downregulation in the root meristem [3]
1 | RRVRRGSDPIHN [CLE45] | elute as monomers | did not observe CLE45-induced binding | strongest root-active CLE peptide | 
2 | RKVPRGPDPIHN [CLE26] |  |  |  | an equally strong effect was not observed in the root meristem

From article PMC6001375, “CLERK is a novel receptor kinase required for sensing of root-active CLE peptides in Arabidopsis” (Development (Cambridge, England), 2018)
